By IC50 is commonly meant the concentration at which inhibition is half-maximal. A low value points to inhibition by little substance.

The experiment concerns the target T1, TNF (TNF-TNFR1 binding) (Homo sapiens, UniProt P01375).
T1 construct: soluble TNF and its receptor TNFR1 in sandwich ELISA; human TNF-alpha (Peprotech) is printed for the cell assays; with Tumor necrosis factor receptor superfamily member 1A
The experiment is described as follows: TNF-TNFR1 sandwich ELISA, inhibition of binding. The conditions noted are these: inhibition of TNF-TNFR1 interaction.

T1 sequence (P01375 77-233): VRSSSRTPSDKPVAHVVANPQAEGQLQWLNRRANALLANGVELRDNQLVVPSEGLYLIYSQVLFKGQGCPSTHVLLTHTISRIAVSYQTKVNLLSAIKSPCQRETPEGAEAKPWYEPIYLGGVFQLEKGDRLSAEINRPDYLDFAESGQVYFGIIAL
T1 sequence (P19438 30-455 partner): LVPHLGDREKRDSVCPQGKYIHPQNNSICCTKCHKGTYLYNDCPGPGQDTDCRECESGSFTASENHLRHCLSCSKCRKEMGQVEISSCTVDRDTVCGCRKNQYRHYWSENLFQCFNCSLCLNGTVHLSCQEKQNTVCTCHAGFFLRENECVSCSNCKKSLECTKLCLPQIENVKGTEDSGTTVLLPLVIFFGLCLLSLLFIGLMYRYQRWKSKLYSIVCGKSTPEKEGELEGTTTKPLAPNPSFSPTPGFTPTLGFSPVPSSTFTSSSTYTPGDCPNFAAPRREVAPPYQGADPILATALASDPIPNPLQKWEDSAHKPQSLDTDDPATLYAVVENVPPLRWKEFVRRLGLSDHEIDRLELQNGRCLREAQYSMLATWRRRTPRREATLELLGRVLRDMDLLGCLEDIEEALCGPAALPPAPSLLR

`Oc1ccc([C@@H]2c3c(O)cc4c(c3C3C2c2c(c(O)cc5c2[C@H](c2cc(O)cc(O)c2)[C@@H](c2ccc(O)cc2)O5)[C@H]3c2ccccc2)[C@H](c2cc(O)cc(O)c2)[C@@H](c2ccc(O)cc2)C4)cc1` (stereo partly shown) [Nepalensinol B] had an IC50 of 90.2 ± 19 µM.

Source of the values: article PMC8508374, “In Silico Identification and Evaluation of Natural Products as Potential Tumor Necrosis Factor Function Inhibitors Using Advanced Enalos Asclepios KNIME Nodes” (International Journal of Molecular Sciences, 2021).
